Measured values as given in PubChem BioAssay AID2060331 (Molecular Pharmacology Branch, DTP, NCI, 2025).

System: Hs578T multi-cell spheroids, viability
Test: Anticancer human tumor Hs578T cell line growth inhibition [IpAb];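 also: drug exposure lasted 7 days before readout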
Conditions: for IC50: curve of first compound; for viability, T/C: stronger effect = lower value
Outline: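 Spheroids of 60% malignant cells, 25% HUVEC and 15% MSC were exposed to targeted agents combined with ipatasertib or abemaciclib. Doses started at or near clinical Cmax (10 microM when unknown) and fell in half-log steps.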

[1] = second compound 0.1 µM, first compound 0.0316 µM
[2] = second compound 0.1 µM, first compound 0.1 µM
[3] = second compound 0.1 µM, first compound 0.316 µM
[4] = second compound 0.1 µM, first compound 1 µM
[5] = second compound 0.1 µM, first compound 3.16 µM
[6] = second compound 0.1 µM, first compound 10 µM
[7] = second compound 0.316 µM, first compound 0.0316 µM
[8] = second compound 0.316 µM, first compound 0.1 µM
[9] = second compound 0.316 µM, first compound 0.316 µM
[10] = second compound 0.316 µM, first compound 1 µM
[11] = second compound 0.316 µM, first compound 3.16 µM
[12] = second compound 0.316 µM, first compound 10 µM
[13] = second compound 1 µM, first compound 0.0316 µM
[14] = second compound 1 µM, first compound 0.1 µM
[15] = second compound 1 µM, first compound 0.316 µM
[16] = second compound 1 µM, first compound 1 µM
[17] = second compound 1 µM, first compound 3.16 µM
[18] = second compound 1 µM, first compound 10 µM
[19] = second compound 3.16 µM, first compound 0.0316 µM
[20] = second compound 3.16 µM, first compound 0.1 µM
[21] = second compound 3.16 µM, first compound 0.316 µM
[22] = second compound 3.16 µM, first compound 1 µM
[23] = second compound 3.16 µM, first compound 3.16 µM
[24] = second compound 3.16 µM, first compound 10 µM
[25] = second compound 10 µM, first compound 0.0316 µM
[26] = second compound 10 µM, first compound 0.1 µM
[27] = second compound 10 µM, first compound 0.316 µM
[28] = second compound 10 µM, first compound 1 µM
[29] = second compound 10 µM, first compound 3.16 µM
[30] = second compound 10 µM, first compound 10 µM

## C=CC(=O)N1CCN(c2nc(=O)n(-c3c(C)ccnc3C(C)C)c3nc(-c4c(O)cccc4F)c(F)cc23)C(C)C1 (stereo not given) + CC(C)NCC(C(=O)N1CCN(c2ncnc3c2C(C)CC3O)CC1)c1ccc(Cl)cc1
Second compound 0.1 µM
  IC50: > 10000 nM
Second compound 0.316 µM
  IC50: > 10000 nM
Second compound 1 µM
  IC50: > 10000 nM
Second compound 3.16 µM
  IC50: 3950 nM
Second compound 10 µM
  IC50: < 31.6 nM
[1]
  viability, T/C: 94.2%
[2]
  viability, T/C: 103%
[3]
  viability, T/C: 102%
[4]
  viability, T/C: 112%
[5]
  viability, T/C: 94.4%
[6]
  viability, T/C: 72%
[7]
  viability, T/C: 83.7%
[8]
  viability, T/C: 90.6%
[9]
  viability, T/C: 90.1%
[10]
  viability, T/C: 89.5%
[11]
  viability, T/C: 84%
[12]
  viability, T/C: 65.5%
[13]
  viability, T/C: 70.8%
[14]
  viability, T/C: 70.9%
[15]
  viability, T/C: 69.3%
[16]
  viability, T/C: 75.1%
[17]
  viability, T/C: 66.2%
[18]
  viability, T/C: 55.1%
[19]
  viability, T/C: 56.7%
[20]
  viability, T/C: 59.6%
[21]
  viability, T/C: 55.1%
[22]
  viability, T/C: 54.5%
[23]
  viability, T/C: 52.8%
[24]
  viability, T/C: 41.9%
[25]
  viability, T/C: 45.1%
[26]
  viability, T/C: 50.4%
[27]
  viability, T/C: 46.9%
[28]
  viability, T/C: 49.1%
[29]
  viability, T/C: 46.5%
[30]
  viability, T/C: 20.4%

## CC(C)(C)c1cnc(CSc2cnc(NC(=O)C3CCNCC3)s2)o1 + CC(C)NCC(C(=O)N1CCN(c2ncnc3c2C(C)CC3O)CC1)c1ccc(Cl)cc1
Second compound 0.1 µM
  IC50: 180 nM
Second compound 0.316 µM
  IC50: 173 nM
Second compound 1 µM
  IC50: 156 nM
Second compound 3.16 µM
  IC50: 108 nM
Second compound 10 µM
  IC50: 33.3 nM
Second compound 0.1 µM, first compound 0.00949 µM
  viability, T/C: 104%
Second compound 0.1 µM, first compound 0.03 µM
  viability, T/C: 114%
Second compound 0.1 µM, first compound 0.0949 µM
  viability, T/C: 109%
Second compound 0.1 µM, first compound 0.3 µM
  viability, T/C: 2.64%
Second compound 0.1 µM, first compound 0.949 µM
  viability, T/C: 2.52%
Second compound 0.1 µM, first compound 3 µM
  viability, T/C: 3.3%
Second compound 0.316 µM, first compound 0.00949 µM
  viability, T/C: 93.5%
Second compound 0.316 µM, first compound 0.03 µM
  viability, T/C: 104%
Second compound 0.316 µM, first compound 0.0949 µM
  viability, T/C: 107%
Second compound 0.316 µM, first compound 0.3 µM
  viability, T/C: 2.26%
Second compound 0.316 µM, first compound 0.949 µM
  viability, T/C: 2.29%
Second compound 0.316 µM, first compound 3 µM
  viability, T/C: 2.23%
Second compound 1 µM, first compound 0.00949 µM
  viability, T/C: 80.7%
Second compound 1 µM, first compound 0.03 µM
  viability, T/C: 88.7%
Second compound 1 µM, first compound 0.0949 µM
  viability, T/C: 89.5%
Second compound 1 µM, first compound 0.3 µM
  viability, T/C: 2.31%
Second compound 1 µM, first compound 0.949 µM
  viability, T/C: 2.45%
Second compound 1 µM, first compound 3 µM
  viability, T/C: 2.32%
Second compound 3.16 µM, first compound 0.00949 µM
  viability, T/C: 60.5%
Second compound 3.16 µM, first compound 0.03 µM
  viability, T/C: 69.6%
Second compound 3.16 µM, first compound 0.0949 µM
  viability, T/C: 56.1%
Second compound 3.16 µM, first compound 0.3 µM
  viability, T/C: 2.25%
Second compound 3.16 µM, first compound 0.949 µM
  viability, T/C: 3.36%
Second compound 3.16 µM, first compound 3 µM
  viability, T/C: 3.32%
Second compound 10 µM, first compound 0.00949 µM
  viability, T/C: 49.3%
Second compound 10 µM, first compound 0.03 µM
  viability, T/C: 57.7%
Second compound 10 µM, first compound 0.0949 µM
  viability, T/C: 14.8%
Second compound 10 µM, first compound 0.3 µM
  viability, T/C: 1.74%
Second compound 10 µM, first compound 0.949 µM
  viability, T/C: 2.09%
Second compound 10 µM, first compound 3 µM
  viability, T/C: 2.94%

## Cn1ncc(Cl)c1-c1cc(C(=O)NC(CN)Cc2cccc(F)c2)sc1Cl (stereo not given) + CC(C)NCC(C(=O)N1CCN(c2ncnc3c2C(C)CC3O)CC1)c1ccc(Cl)cc1
Second compound 0.1 µM
  IC50: 1680 nM
Second compound 0.316 µM
  IC50: 2070 nM
Second compound 1 µM
  IC50: 1110 nM
Second compound 3.16 µM
  IC50: 951 nM
Second compound 10 µM
  IC50: 31.6 nM
[1]
  viability, T/C: 90.9%
[2]
  viability, T/C: 83.2%
[3]
  viability, T/C: 70%
[4]
  viability, T/C: 56.5%
[5]
  viability, T/C: 44.5%
[6]
  viability, T/C: 0.16%
[7]
  viability, T/C: 51.9%
[8]
  viability, T/C: 73.5%
[9]
  viability, T/C: 67.1%
[10]
  viability, T/C: 54.5%
[11]
  viability, T/C: 45.9%
[12]
  viability, T/C: 0.16%
[13]
  viability, T/C: 67.3%
[14]
  viability, T/C: 62.1%
[15]
  viability, T/C: 50.1%
[16]
  viability, T/C: 51.6%
[17]
  viability, T/C: 39.4%
[18]
  viability, T/C: 0.15%
[19]
  viability, T/C: 53.2%
[20]
  viability, T/C: 53.7%
[21]
  viability, T/C: 49%
[22]
  viability, T/C: 48.6%
[23]
  viability, T/C: 41.5%
[24]
  viability, T/C: 0.16%
[25]
  viability, T/C: 42.7%
[26]
  viability, T/C: 47.3%
[27]
  viability, T/C: 43.9%
[28]
  viability, T/C: 52.2%
[29]
  viability, T/C: 28.6%
[30]
  viability, T/C: 0.24%

## Cn1nccc1Nc1nccc(-c2ccn(C(CO)c3ccc(Cl)c(F)c3)c(=O)c2)n1 (stereo not given) + CC(C)NCC(C(=O)N1CCN(c2ncnc3c2C(C)CC3O)CC1)c1ccc(Cl)cc1
Second compound 0.1 µM
  IC50: 4560 nM
Second compound 0.316 µM
  IC50: 2610 nM
Second compound 1 µM
  IC50: 1520 nM
Second compound 3.16 µM
  IC50: 626 nM
Second compound 10 µM
  IC50: 138 nM
[1]
  viability, T/C: 106%
[2]
  viability, T/C: 109%
[3]
  viability, T/C: 111%
[4]
  viability, T/C: 76.8%
[5]
  viability, T/C: 59.4%
[6]
  viability, T/C: 37.9%
[7]
  viability, T/C: 91.5%
[8]
  viability, T/C: 90.5%
[9]
  viability, T/C: 94.3%
[10]
  viability, T/C: 60.9%
[11]
  viability, T/C: 50.9%
[12]
  viability, T/C: 23.6%
[13]
  viability, T/C: 65.8%
[14]
  viability, T/C: 73.5%
[15]
  viability, T/C: 77.7%
[16]
  viability, T/C: 54.3%
[17]
  viability, T/C: 36.2%
[18]
  viability, T/C: 14.1%
[19]
  viability, T/C: 62.2%
[20]
  viability, T/C: 61.6%
[21]
  viability, T/C: 61.7%
[22]
  viability, T/C: 42.4%
[23]
  viability, T/C: 16.3%
[24]
  viability, T/C: 2.55%
[25]
  viability, T/C: 48.1%
[26]
  viability, T/C: 55.6%
[27]
  viability, T/C: 45.6%
[28]
  viability, T/C: 31.1%
[29]
  viability, T/C: 3.87%
[30]
  viability, T/C: 0.64%

## Cn1ncnc1[C@H]1c2n[nH]c(=O)c3cc(F)cc(c23)N[C@@H]1c1ccc(F)cc1 + CC(C)NCC(C(=O)N1CCN(c2ncnc3c2C(C)CC3O)CC1)c1ccc(Cl)cc1
Second compound 0.1 µM
  IC50: > 100 nM
Second compound 0.316 µM
  IC50: > 100 nM
Second compound 1 µM
  IC50: > 100 nM
Second compound 3.16 µM
  IC50: 0.553 nM
Second compound 10 µM
  IC50: < 0.316 nM
Second compound 0.1 µM, first compound 0.000316 µM
  viability, T/C: 97.6%
Second compound 0.1 µM, first compound 0.001 µM
  viability, T/C: 95.3%
Second compound 0.1 µM, first compound 0.00316 µM
  viability, T/C: 87.9%
Second compound 0.1 µM, first compound 0.01 µM
  viability, T/C: 88.2%
[1]
  viability, T/C: 82.8%
[2]
  viability, T/C: 82.3%
Second compound 0.316 µM, first compound 0.000316 µM
  viability, T/C: 80.7%
Second compound 0.316 µM, first compound 0.001 µM
  viability, T/C: 79.5%
Second compound 0.316 µM, first compound 0.00316 µM
  viability, T/C: 79.9%
Second compound 0.316 µM, first compound 0.01 µM
  viability, T/C: 71.7%
[7]
  viability, T/C: 75.5%
[8]
  viability, T/C: 65.9%
Second compound 1 µM, first compound 0.000316 µM
  viability, T/C: 66.1%
Second compound 1 µM, first compound 0.001 µM
  viability, T/C: 61.3%
Second compound 1 µM, first compound 0.00316 µM
  viability, T/C: 62.6%
Second compound 1 µM, first compound 0.01 µM
  viability, T/C: 60%
[13]
  viability, T/C: 58.6%
[14]
  viability, T/C: 55.1%
Second compound 3.16 µM, first compound 0.000316 µM
  viability, T/C: 49.7%
Second compound 3.16 µM, first compound 0.001 µM
  viability, T/C: 49.4%
Second compound 3.16 µM, first compound 0.00316 µM
  viability, T/C: 50.5%
Second compound 3.16 µM, first compound 0.01 µM
  viability, T/C: 48.3%
[19]
  viability, T/C: 44.9%
[20]
  viability, T/C: 42.3%
Second compound 10 µM, first compound 0.000316 µM
  viability, T/C: 46.1%
Second compound 10 µM, first compound 0.001 µM
  viability, T/C: 42.9%
Second compound 10 µM, first compound 0.00316 µM
  viability, T/C: 44.9%
Second compound 10 µM, first compound 0.01 µM
  viability, T/C: 40.6%
[25]
  viability, T/C: 43.3%
[26]
  viability, T/C: 38.6%
